From patent publication US11673853B2, “Small molecule AMPK activators” (University of Pittsburgh—Of the Commonwealth System of …, priority 2016, dated 2023)

What was measured:
C57BL6 mice = assay: LPS-induced sepsis model; type: in vivo; details: i.p., LPS (E. coli) 3 mg/kg i.p. after 10 min, blood at 2 h
Method: FIG. 5. C57BL6 mice were administered i.p. vehicle, 0.04, 0.2, 1 or 5 mg/kg of Compound 12. After 10 min, mice were given LPS (E. coli, 3 mg/kg) through an i.p. injection and, after 2 h, mice were euthanized and blood was collected for IL1-β, IL-6 and TNFα measurements. Shown in panels (D)-(F) is % inhibition of cytokine levels as a function of drug dose. The data represent n=3 mice/group at each dose. Protein (A), cell counts (B), bacterial count (C), and presence of AMPK and pAMPK (G) were also determined.
FIG. 11. (A-B.) C57BL6 mice were administered i.p. vehicle, 0.08, 0.4, 2 or 10 mg/kg of Compound 23. After 10 min, mice were given LPS (E. coli, 3 mg/kg) through an i.p. injection and, after 2 h, mice were euthanized and blood collected for IL-6 and TNFα measurements. Shown in panels (A-B.) are the cytokine levels as a function of drug dose. The data represent n=3 mice/group at each dose. (C-G) Compound 23 (2 or 10 mg/kg) was administered to mice though an i.p. injection, and mice were immediately challenged with LPS (E. coli, 3 mg/kg, i.t.) or without (control, CON) for an additional 18 h. Mice were then euthanized and lungs were lavaged with saline, harvested, and then homogenized. Lavage protein (C), cell counts (D) and cytokine secretions (E-G) were measured. The data are representative of data from n=5 mice/group, *P<0.05 versus vehicle.
In a sepsis model, Compound 12 was administered to mice at various doses through an i.p. injection, and, after 10 min, the mice were given LPS (E. coli; 3 mg/kg i.p.). Two hours later, the mice were euthanized, and blood was collected and assayed for IL-1β, IL-6 and TNFα cytokine levels.
Compound 23 was tested in a sepsis model. Compound 23 was administered to mice at various doses through an i.p. injection, and 10 min later, mice were given LPS (E. coli; 3 mg/kg i.p.). After 2 h, mice were euthanized and blood was collected and assayed for IL-6 and TNFα cytokine levels. […] Finally, Compound 23 was tested in a pneumonia model using LPS endotoxin. […] Thus Compound 23 protects the lung against LPS induced lung injury.

mice = assay: Cecal ligation and puncture (CLP)-induced sepsis model; type: in vivo; details: 10 mg/kg i.p., 24 h
Method: FIG. 6. Mice were anesthetized prior to the cecal ligation and puncture (CLP) procedure. Compound 12 (10 mg/kg) was then administered immediately afterwards through an intraperitoneal (i.p.) injection. After 24 h, mice were euthanized and blood was collected for assays of IL-6, TNF, and IL1-β levels. Peritoneal fluid was obtained for determination of bacterial counts after CLP in mice. The lungs were also lavaged with saline, harvested, and then homogenized. Lavage cytokine secretion (C-E), protein (A), cell counts (B) were measured. The data represent n=4-5 mice/group, *P<0.05 Compound 12 versus vehicle. Presence of AMPK and pAMPK was also determined (F).
Compound 12 was examined in a model of cecal ligation and puncture (CLP)-induced sepsis.

PBMC cells = assay: Cytokine array of LPS-treated PBMC cells; type: cell-based, human; details: 5 μM 18 h, then LPS 100 ng/ml 4 h
Method: FIG. 10. (A) 50K PBMC cells were cultured in 96 well plates before being exposed to Compound 23 for 18 h. Cells were then treated with LPS (10 ng/ml) for additional 4 h. Media were then collected and TNF and IL-1b concentration were determined by ELISA. (B) PBMC cells (1 mL at 1.0×10^6/ml) were treated with Compound 23 (5 μM) for 18 h. Cells were then treated with 100 ng/ml LPS for 4 h. Cytokine release was monitored by the human cytokine array (R&D systems). The results from a cytokine array dot blot were quantitated and graphed.
Compound 23 was tested in in vitro inflammatory assays. 50K PBMC cells were cultured in 96 well plates before being exposed to Compound 23 for 18 h. Cells were then treated with LPS (10 ng/ml) for additional 4 h. Media were then collected and assayed for TNF and IL-1b. […] Cytokine arrays were used to profile which cyotokine/chemokines were regulated by Compound 23.

Diet-induced obese mice = Diet-induced obese mice study, 14 days dosing; type: in vivo; details: once daily for 14 days; BC1618 8 or 40 mg/kg/d
Method: FIG. 12. Diet-induced obese mice were fed a high-fat diet for 19 weeks and then injected with vehicle or drug once daily for 14 days. Daily body weights (in grams) of the mice are shown.
Diet-induced obese mice arrived from Jackson Labs and recovered two weeks in satellite housing before study. Mice were 25 weeks old and fed a high-fat diet for 19 weeks at the time of study. Body weight, fat and lean mass were measured and mice were grouped in order to match body weights at ˜46.5 g average per group prior to study. Following the acute dosing trial, mice were injected with vehicle or drug 1× daily between noon and 2 pm for 14 days (BC1618-L (low dose)=8 mg/kg/d, BC1618-H (high dose)=40 mg/kg/d). Body weight was recorded daily (FIGS. 12-15). FIG. 12 and FIG. 13 show body weight in grams and FIG. 14 and FIG. 15 show body weight as a percentage of body weight on day 0 (DO).
FIGS. 16-19 show the change (A) in body weight (BW) from day 0 to day 14 expressed as change in grams (FIG. 16 and FIG. 17) or as percent change from day 0 (FIG. 18 and FIG. 19).
Body composition was measured at DO in the body weight matched animals and again at day 14 (D14). Data in FIGS. 20-23 represent the change in fat mass from DO to D14 expressed as grams (FIG. 20 and FIG. 21) or as percent change (FIG. 22 and FIG. 23).
Data in FIGS. 24-27 represent the change in lean mass from DO to D14 expressed as grams (FIG. 24 and FIG. 25) and as percent change (FIG. 26 and FIG. 27). Overall there appears to be a modest effect of vehicle and drug to reduce lean mass over 14 days, but no differences between groups. Changes in BW over 14 days therefore reflect changes in fat mass and not lean mass.

[1] = test system: High-fat diet fed C57BL6J mice; assay: Acute oral dosing study in high-fat diet fed mice; type: in vivo

Structure (SMILES) | ID50 IL-1β (C57BL6 mice) [mg/kg] | ID50 IL-6 (C57BL6 mice) [mg/kg] | ID50 TNF-α (C57BL6 mice) [mg/kg] | CLP-induced lung injury (BAL cytokines, protein and cell counts) (mice) | CLP-induced secretion of circulating proinflammatory cytokines (IL-6, TNF, IL1-β) (mice) | bacterial count (mice; peritoneal fluid) | cytokines/chemokines regulated (cytokine array) (PBMC cells) | body weight loss (daily body weight) (Diet-induced obese mice) | change in body weight from day 0 to day 14 (Diet-induced obese mice) | change in fat mass from D0 to D14 (Diet-induced obese mice) | glucose tolerance (intraperitoneal glucose tolerance test) ([1]; 1 g/kg body weight glucose, data not shown) | body weight at the time of study ([1]; two oral doses (AICAR 200 mg/kg, BC1618 20 mg/kg)) | reduction of fasting plasma glucose compared to vehicle ([1]; two oral doses (AICAR 200 mg/kg, BC1618 20 mg/kg), 2 h after second dose, P=0.08) [%]
OC(COc1ccc(F)cc1)CN(Cc1ccccc1)Cc1ccccc1 (stereo not drawn) [Compound 12] | 0.1 | 0.4 | 0.4 | effectively reduce severities | significantly attenuated | without affecting bacterial count |  |  |  |  |  |  | 
OC(COc1ccc(C(F)(F)F)cc1)CN(Cc1ccccc1)Cc1ccccc1 (stereo not drawn) [Compound 23] |  | 0.4 | 0.4 |  |  |  | decreases CD40, GMCSF, IL-1b, IL-1ra, IL-2, IL-12, IL-13, ITAC and TNF | effect of AICAR and BC1618 on body weight loss | an effect due to AICAR or BC1618 | apparent additive effect | no difference in glucose tolerance | no differences in body weight | 25
